For test [1], the system named is airway hyper-responsiveness induced by peroxynitrite. The experiment in a line: Airway hyper-responsiveness model induced by exposure of peroxynitrite in guinea pigs (lung resistance after histamine). Conditions: 30 mg/kg orally one hour before peroxynitrite, histamine 32 μg/kg i.v. on 5-day, control group 759, non-stimulation group 382. The class given is in vivo. The protocol: This test was performed so as to investigate the pharmacological effect of the 7-aminoquinolinone derivative of the present invention on an airway hyper-responsiveness model induced by exposure of peroxynitrite in guinea pigs. The test procedure will now be described.
Guinea pigs were fasted for 18 hours or more. The animals were administrated the test substance (30 mg/kg) orally one hour before exposure of peroxynitrite and the neck was dissected under ether anesthesia, and then the trachea was exposed. 0.1 mL of 1 mmol/L peroxynitrite was administered intratracheally into pulmonary side by pushing with air and, after the administration, the incision was sutured and disinfected.
The measurement of airway hyper-responsiveness was performed on 5-day, taking the day of model preparation 0-day. Guinea pigs were fasted for 18 hours or more. The measurement of lung resistance; (RLung) was performed according to the method of R. E. Giles et al. (R. E. Giles, M. P. Finkel and J. Mazurowski: Use of an Analog On-Line Computer for the Evaluation of Pulmonary Resistance and Dynamic Compliance in the Anesthetized Dog. Arch. Int. Pharmacodyn. 194, 213-222 (1971)). That is, the animals were anesthetized with Nembutal (Trade name: 40 mg/kg, i.v., sodium pentobarbital) and subjected to cannulation into esophagus, trachea and jugular veins (for administration of histamine). The esophagus and trachea cannulas were connected to an artificial respirator (ventilation volume: 6 mL/kg, ventilation frequency: 60 times/min, SN-480-7) and the Rlung was measured after intravenous administration (dose of 0.1 mL/kg) of physiological saline solution and histamine (32 μg/kg) using a total plethysmograph system via flow sensor, connected to Validyne DF45F (for flow rate) and DP45P (for pressure). RLung before administration was determined by averaging values of any 3 out of 20 breaths, RLung after administration of physiological saline solution was determined by averaging values of any 3 out of 5 breaths, and RLung after administration of histamine was determined by averaging values of the following 3 breaths; 1) showing the maximum lung resistance, 2) taken just before and 3) taken just after the one with the maximum lung resistance, out less than 20 breaths. (The extreme values in RLung that occurred when animal moved during the measurement were excluded from the calculations.)
The percentage of increase in lung resistance was calculated by the following equation. Increase in lung resistance (%)=([RLung after administration of histamine]−[RLung before administration])/[RLung before administration]×100

A short description of test [2]: Peroxynitrite scavenging activity (oxidation of dihydrorhodamine 123). The class given is biochemical. The conditions noted are these: oxidation of dihydrorhodamine 123 by peroxynitrite, phosphate buffer pH 7.4; read-out: 50% Inhibitory concentration on oxidation (IC50). As for the experimental part:
This test was performed by estimating the antioxidative effect of the test substance using peroxynitrite quantitative method as a test system with dihydrorhodamine 123 so as to confirm the ability of the 7-aminoquinolinone derivatives of the present invention to scavenge peroxynitrite. This is a method described in NITRIC OXIDE: Biology and Chemistry Vol. 1, 145-157, 1997.
The test substance was weighted in an amount of approximately 10 mg, dissolved in a 10% Tween 80 solution and adjusted to 5×10^−3 mol/L. Then, the solution was diluted with 0.1 mol/L phosphate buffer (pH=7.4) to 5×10^−4 mol/L. The diluent was further diluted stepwise with a phosphate buffer containing 1% Tween 80 to obtain substance solution. The preparation was conducted before use. The final concentration of the test substance was adjusted to 3×10^−6, 1×10^−6, 3×10^−7, 1×10^−7, and 3×10^−8 mol/L, respectively.
To 20 μL of peroxynitrite solution (manufactured by DOJINDO LABORATORIES), 1980 μL of 0.1 mol/L sodium hydroxide was added and the mixture was diluted 100 times. The absorbance of the maximum absorption wavelength near 300 nm was measured using a UV-visible spectrophotometer and the concentration was calculated according to the following equation. Concentration(mmol/L)=(absorbance/1670)×100×1000
Based on the concentration calculated in the above section, dilution with a 0.1 mol/L sodium hydroxide solution was conducted and adjusted to 10 mmol/L. 990 μL of a 0.1 mol/L sodium hydroxide solution was taken into a 1.5 mL-Eppen tube. To the Eppen tube, 10 μL of a solution adjusted to 10 mmol/L was added to prepare a 100 μmol/L solution.
Dihydrorhodamine 123 was dissolved into 1.155 mL of dimethylsulfoxide, and adjusted to the concentration of 25 mmol/L. This solution was dispensed into 20 μL aliquots and then the aliquots were stored in a biomedical freezer (about −20° C.) and used as a stock solution.
To 490 μL of 0.02% Tween 80 containing 0.1 mol/L phosphate buffer, 10 μL of 25 mmol/L of a thawed dihydrorhodamine 123 stock solution was added to make 500 μmol/L. The prepared solution was diluted with 0.1 mol/L phosphate buffer (pH=7.4) 1000 times to prepare 500 nmol/L of a dihydrorhodamine 123 solution.
(1) To a 3.5 mL brown vial containing a stirring bar, 1470 μL of a 500 nmol/L dihydrorhodamine 123 solution and then 15 μL of the test substance solution was added. For the blank and control groups, 15 μL of 0.1 mol/L phosphate buffer containing 1% Tween 80, as a solvent for the test substance solution, was added. After the addition, the mixture was stirred with a stirrer for 30 minutes.
15 μL of a 100 μmol/L peroxynitrite solution was added while stirring. For the blank group, 15 μL of a 0.1 mol/L sodium hydroxide solution was added. After stirring for 15 minutes, fluorescence intensity was measured.
Fluorescence intensity of the reaction solution was measured using a spectrophotofluorometer under the following measuring conditions: excitation wavelength, 500 nm; emission wavelength, 536 nm; measuring times, one; response, 1 sec; photomultiplier tube voltage, Low; band width at excitation side, 10 nm; bandwidth at emission side, 10 nm.
The oxidation rate of dihydrorhodamine 123 when adding the test substance was calculated, taking the oxidation rate of dihydrorhodamine 123 for control as 100, according to the following equation: Oxidation rate (%) of dihydrorhodamine 123=(measured value for each group−measured value for blank)/(measured for control−measured value for blank)×100 Calculation of Oxidation Inhibition Concentration (IC50)
50% oxidation concentration, that is 50% oxidation inhibition concentration (IC50) was calculated by giving a straight line from two points surrounding 50% oxidation rate.

Test [3] concerns airway hyper-responsiveness induced by ozone. The experiment in a line: Airway hyper-responsiveness model induced by inhalation of ozone in guinea pigs (lung resistance after methacholine). The class given is in vivo. The conditions noted are these: RLung after methacholine inhalation 5 hours after end of ozone exposure. As for the experimental part:
This test was performed so as to evaluate the pharmacological effect of the 7-aminoquinolinone derivatives of the present invention in an airway hyper-responsiveness model induced by inhalation of ozone in guinea pigs. The test procedure will now be described.
Guinea pigs were fasted for 18 hours or more. The animals were administered the test substance (30 mg/kg) and theophylline (100 mg/kg) one hour before ozone inhalation. For the non-stimulation group and the vehicle control group, vehicle (5 mL/kg) was administered similarly.
The animals were put into an acryl-made chamber (29×19×25 cm), subjected to induction of ozone generated by an ozonizer (EUV3-XU; EBARA JITSUGYO CO, LTD.) and exposed for 2 hours. The ozone concentration in the chamber was approximately 3 ppm. It was confirmed every 30 minutes that this concentration was maintained during exposure by an ozone monitor (EG-5000; EBARA JITSUGYO CO, LTD.) (measured value: 2.53 to 3.40 ppm). For the non-stimulation group, the animals were exposed to a mixed gas (oxygen: 95%, carbonic acid gas: 5%) similarly. The ozone concentration at that time was also confirmed similarly (acceptable concentration: 0.01 ppm or less, measured value: 0.00 to 0.01 ppm).
The measurement of airway hyper-responsiveness was performed 5 hours after the end of ozone exposure. The measurement of lung resistance (RLung) was performed according to the method of R. E. Giles et al. in the same manner as in Example 2. That is, the animals were anesthetized with Nembutal (Trade name: 50 mg/kg, i.p., sodium pentobarbital) and subjected to cannulation into esophagus and trachea. The esophagus and trachea cannulas were connected to a respirator (ventilation volume: 6 mL/kg, ventilation frequency: 60 times/min, SN-480-7) and the RLung after inhalation of methacholine (100 μg/mL, for 1.5 minutes) was measured by the respiratory function analyzer (PULMOS-II; M.I.P.S) through a flow sensor (connected to Validyle DF45F (for flow rate) and DP45P (for pressure)). The inhalation of methacholine was performed with an ultrasonic nebuliser (NE-U17; Omron Matsuzaka) connected to the respirator under artificial respiration.
Used RLung represents 10 breaths having a stable value in a range from 1 to 30 breaths after initiation of each measurement for both before inhalation and during methacholine inhalation. The average of the RLung was calculated. The extreme values in RLung that occurred when animal moved during the measurement were excluded from the calculations.
The percentage of increase of RLung was calculated by the following equation. Increase in lung resistance (%)=([RLung after inhalation of methacholine]−[RLung before administration])/[RLung before administration]×100

Setting [4] is: test substance 30 mg/kg one hour before ozone inhalation.

Here are results for 19 compounds from patent US8980914B2, “Therapeutic agent for chronic obstructive pulmonary disease and method for treatment for chronic obstructive pulmonary disease with the same” (Mariposa Health Limited, priority 2003, dated 2015).

For `COc1c(OC(C)=O)c(=O)n(C)c2cc(N)ccc12` [Compound 32], the “Increase in lung resistance (%)” value in test [1] was determined as 435%; in test [3] (setting [4]), 32%. Also, the IC50 in test [2] amounted to 960 nM.
Turning to `CCCCCCOc1c(O)c2ccc(N)cc2n(C)c1=O` [Compound 53], the “Increase in lung resistance (%)” value in test [1] is listed as 440%; in test [3] (setting [4]), 29%. Also, the IC50 in test [2] amounted to 880 nM.
In the same order, the values of `CCCCCCCCOc1c(O)c2ccc(N)cc2n(C)c1=O` [Compound 55] are 425%, 26% and 960 nM.
On to `C=CCOc1c(O)c2ccc(N)cc2n(C)c1=O` [Compound 56], for which the figures for the “Increase in lung resistance (%)” value in test [1] and in test [3] (setting [4]) were 434% and 30%, respectively. The IC50 in test [2] was 1050 nM.
For `COc1c(O)c(=O)n(C)c2cc(N)ccc12` [Compound 58], the “Increase in lung resistance (%)” value in test [1] came out at 423%; in test [3] (setting [4]), 27%. Further, the IC50 in test [2] was 810 nM.
For `CCCCCCCCOc1c(O)c2ccc(N)cc2n(CC)c1=O` [Compound 87], the figures for the “Increase in lung resistance (%)” value in test [1] and in test [3] (setting [4]) were 432% and 29%, respectively. In addition, the IC50 in test [2] came out at 840 nM.
With `CCCCCCOc1c(O)c2ccc(N)cc2n(CCCCCC)c1=O` [Compound 147], the “Increase in lung resistance (%)” value was determined as 429% in test [1] and 29% in test [3] (setting [4]). Besides, the IC50 in test [2] stood at 790 nM.
As for `CCCCCCCCn1c(=O)c(OC)c(O)c2ccc(N)cc21` [Compound 173], the results for the “Increase in lung resistance (%)” value in test [1] and in test [3] (setting [4]) were 430% and 30%, respectively. The IC50 in test [2] was found to be 890 nM.
For `CCCCCCCCn1c(=O)c(O)c(OC)c2ccc(N)cc21` [Compound 181], the entries for the “Increase in lung resistance (%)” value in test [1] and in test [3] (setting [4]) were 425% and 25%, respectively. Further, the IC50 in test [2] amounted to 940 nM.
Consider `CCCCCCNc1ccc2c(O)c(OC)c(=O)[nH]c2c1` [Compound 204], for which the “Increase in lung resistance (%)” value in test [1] is recorded as 439%; in test [3] (setting [4]) it was 37%. The IC50 in test [2] turned out to be 890 nM.
Take `CCNc1ccc2c(O)c(OC)c(=O)n(C)c2c1` [Compound 236]: the “Increase in lung resistance (%)” value came to 428% in test [1] and 28% in test [3] (setting [4]). Moreover, the IC50 in test [2] worked out at 880 nM.
Consider `CCCCNc1ccc2c(OC)c(O)c(=O)n(CC)c2c1` [Compound 276], for which the “Increase in lung resistance (%)” value came to 430% in test [1] and 30% in test [3] (setting [4]). Moreover, the IC50 in test [2] turned out to be 820 nM.
As to `CCCCOc1c(O)c2ccc(N(C)C)cc2n(CCCC)c1=O` [Compound 303], the “Increase in lung resistance (%)” value in test [1] is reported as 427%; in test [3] (setting [4]), 27%. Further, the IC50 in test [2] came out at 840 nM.
For the compound `CCCCn1c(=O)c(O)c(OC)c2ccc(N(C)C)cc21` [Compound 309], the “Increase in lung resistance (%)” value in test [1] was determined as 435%; in test [3] (setting [4]) it was 34%. Moreover, in test [2], the IC50 is 800 nM.
For `CCCCCCn1c(=O)c(OC)c(O)c2ccc(NCC)cc21` [Compound 330] the same measures were 417%, 22% and 790 nM.
On to `CCCCCCCCn1c(=O)c(OC)c(O)c2ccc(NCC)cc21` [Compound 359], for which the “Increase in lung resistance (%)” value came out at 431% in test [1] and 31% in test [3] (setting [4]). For the same compound, the IC50 in test [2] is 850 nM.
For `CCCCCCCCOc1c(O)c2ccc(NC(C)=O)cc2n(C)c1=O` [Compound 396] the same measures were 421%, 22% and 940 nM.
For `CCCCCCOc1c(O)c(=O)n(C)c2cc(NC(C)=O)ccc12` [Compound 401] the same measures were 420%, 25% and 1010 nM.
Turning to `Cn1c(=O)c2[nH]cnc2n(C)c1=O` [theophylline, reference compound], the “Increase in lung resistance (%)” value in test [3] (theophylline 100 mg/kg one hour before ozone inhalation) is recorded as 26%.
